For the assay, the system named is Beet Armyworm (Spodoptera exigua). Nature of the assay: Bioassay on Beet Armyworm (BAW), 128-well diet tray assay. The assay is classed as in vivo. The note with it: percent mortality of second instar larvae, 50 μg/cm^2 on artificial diet, five to seven days, 25° C.; Table 3. Here is the method: Certain molecules disclosed in this document were tested against BAW and CEW and CL using procedures described in the following examples. In the reporting of the results, the “BAW & CEW & CL Rating Table” was used (See Table Section).
Bioassays on BAW (Spodoptera exigua)
Bioassays on BAW were conducted using a 128-well diet tray assay. one to five second instar BAW larvae were placed in each well (3 mL) of the diet tray that had been previously filled with 1 mL of artificial diet to which 50 μg/cm^2 of the test compound (dissolved in 50 μL of 90:10 acetone-water mixture) had been applied (to each of eight wells) and then allowed to dry. Trays were covered with a clear self-adhesive cover, and held at 25° C., 14:10 light-dark for five to seven days. Percent mortality was recorded for the larvae in each well; activity in the eight wells was then averaged. The results are indicated in the table entitled “Table 3: Assay Results” (See Table Section).

Molecules are shown by their SMILES.

For `Cc1cc(/C=C/C(c2cc(Cl)cc(Cl)c2)C(F)(F)F)ccc1C(=O)NCc1ccc(Cl)nc1` (stereo not shown) [AC7], the “BAW Rating” value is listed as “A (50-100)”.

As for `Cc1cc(/C=C/C(c2cc(Cl)cc(Cl)c2)C(F)(F)F)ccc1C(=O)NCc1ccccc1F` (stereo not shown) [AC9], the “BAW Rating” value was “A (50-100)”.

Consider `Cc1cc(/C=C/C(c2cc(Cl)cc(Cl)c2)C(F)(F)F)ccc1C(=O)NC1CSC1` (stereo not shown) [AC10], for which the “BAW Rating” value was “A (50-100)”.

On to `Cc1cc(/C=C/C(c2cc(Cl)cc(Cl)c2)C(F)(F)F)ccc1C(=O)NCc1ccccc1` (stereo not shown) [AC11], for which the “BAW Rating” value is “A (50-100)”.

For the compound `Cc1cc(/C=C/C(c2cc(Cl)cc(Cl)c2)C(F)(F)F)ccc1C(=O)NCc1ccccn1` (stereo not shown) [AC12], the “BAW Rating” value is given as “A (50-100)”.

For `Cc1cc(/C=C/C(c2cc(Cl)cc(Cl)c2)C(F)(F)F)ccc1C(=O)NC1CS(=O)(=O)C1` (stereo not shown) [AC13], the “BAW Rating” value is “A (50-100)”.

In the case of `Cc1cc(/C=C/C(c2cc(Cl)cc(Cl)c2)C(F)(F)F)ccc1C(=O)NCc1cnc(Cl)s1` (stereo not shown) [AC15], the “BAW Rating” value is given as “A (50-100)”.

Consider `Cc1cc(/C=C/C(c2cc(Cl)cc(Cl)c2)C(F)(F)F)ccc1C(=O)NC(C)(C)c1ccccn1` (stereo not shown) [AC16], for which the “BAW Rating” value is listed as “A (50-100)”.

`Cc1cc(/C=C/C(c2cc(Cl)cc(Cl)c2)C(F)(F)F)ccc1C(=O)NNc1ccccc1F` (stereo not shown) [AC17]: the “BAW Rating” value is recorded as “A (50-100)”.

In the case of `Cc1cc(/C=C/C(c2cc(Cl)cc(Cl)c2)C(F)(F)F)ccc1C(=O)NCc1ncccn1` (stereo not shown) [AC18], the “BAW Rating” value is on record as “A (50-100)”.

Take `Cc1cc(/C=C/C(c2cc(Cl)cc(Cl)c2)C(F)(F)F)ccc1C(=O)NCc1ccoc1` (stereo not shown) [AC20]: the “BAW Rating” value is listed as “A (50-100)”.

On to `Cc1cc(/C=C/C(c2cc(Cl)c(Cl)c(Cl)c2)C(F)(F)F)ccc1C(=O)NCc1ccc(Cl)nc1` (stereo not shown) [AC22], for which the “BAW Rating” value is “A (50-100)”.

Consider `Cc1cc(/C=C/C(c2cc(Cl)c(Cl)c(Cl)c2)C(F)(F)F)ccc1C(=O)NC1CSC1` (stereo not shown) [AC23], for which the “BAW Rating” value is recorded as “A (50-100)”.

`Cc1cc(/C=C/C(c2cc(Cl)c(Cl)c(Cl)c2)C(F)(F)F)ccc1C(=O)NCc1cnc(Cl)s1` (stereo not shown) [AC26]: the “BAW Rating” value is on record as “A (50-100)”.

For `Cc1cc(/C=C/C(c2cc(Cl)c(Cl)c(Cl)c2)C(F)(F)F)ccc1C(=O)NC(C)(C)c1ccccn1` (stereo not shown) [AC27], the “BAW Rating” value is “A (50-100)”.

On to `O=C(NCc1ccc(Cl)nc1)c1ccc(/C=C/C(c2cc(Cl)c(Cl)c(Cl)c2)C(F)(F)F)cc1Cl` (stereo not shown) [AC28], for which the “BAW Rating” value was “A (50-100)”.

With `O=C(NC1CSC1)c1ccc(/C=C/C(c2cc(Cl)c(Cl)c(Cl)c2)C(F)(F)F)cc1Cl` (stereo not shown) [AC29], the “BAW Rating” value was “A (50-100)”.

Consider `O=C(NC1CS(=O)(=O)C1)c1ccc(/C=C/C(c2cc(Cl)c(Cl)c(Cl)c2)C(F)(F)F)cc1Cl` (stereo not shown) [AC30], for which the “BAW Rating” value is given as “A (50-100)”.

As for `O=C(NCc1ccc(Cl)nc1)c1ccc(/C=C/C(c2cc(Cl)c(Cl)c(Cl)c2)C(F)(F)F)cc1Br` (stereo not shown) [AC31], the “BAW Rating” value was “A (50-100)”.

Take `O=C(NC1CSC1)c1ccc(/C=C/C(c2cc(Cl)c(Cl)c(Cl)c2)C(F)(F)F)cc1Br` (stereo not shown) [AC32]: the “BAW Rating” value is “A (50-100)”.

On to `O=C(NC1CS(=O)(=O)C1)c1ccc(/C=C/C(c2cc(Cl)c(Cl)c(Cl)c2)C(F)(F)F)cc1Br` (stereo not shown) [AC33], for which the “BAW Rating” value is on record as “A (50-100)”.

For the compound `O=C(NC1CSC1)c1ccc(/C=C/C(c2cc(Cl)c(Cl)c(Cl)c2)C(F)(F)F)cc1C(F)(F)F` (stereo not shown) [AC34], the “BAW Rating” value is on record as “A (50-100)”.

As for `O=C(NC1CS(=O)(=O)C1)c1ccc(/C=C/C(c2cc(Cl)c(Cl)c(Cl)c2)C(F)(F)F)cc1C(F)(F)F` (stereo not shown) [AC35], the “BAW Rating” value is given as “A (50-100)”.

As for `O=C(NCc1ccc(Cl)nc1)c1ccc(/C=C/C(c2cc(Cl)c(Cl)c(Cl)c2)C(F)(F)F)cc1C(F)(F)F` (stereo not shown) [AC36], the “BAW Rating” value is recorded as “A (50-100)”.

Regarding `Cc1cc(/C=C/C(c2ccc(Cl)c(Cl)c2)C(F)(F)F)ccc1C(=O)NCc1ccc(Cl)nc1` (stereo not shown) [AC37], the “BAW Rating” value is “A (50-100)”.

Turning to `Cc1cc(/C=C/C(c2cc(Cl)c(F)c(Cl)c2)C(F)(F)F)ccc1C(=O)NCc1ccc(Cl)nc1` (stereo not shown) [AC38], the “BAW Rating” value is reported as “A (50-100)”.

For `Cc1cc(/C=C/C(c2cc(Cl)cc(Cl)c2)C(F)(F)F)ccc1C(=O)NCc1cncnc1` (stereo not shown) [AC39, 4-((E)-3-(3,5-Dichlorophenyl)-4,4,4-trifluorobut-1-enyl)-2-methyl-N-((pyrimidin-5-yl)methyl)benzamide], the “BAW Rating” value is reported as “A (50-100)”.

As for `Cc1cc(/C=C/C(c2cc(Cl)cc(Cl)c2)C(F)(F)F)ccc1C(=O)NCC(=O)NC1CC1` (stereo not shown) [AC40], the “BAW Rating” value is “A (50-100)”.

For `Cc1cc(/C=C/C(c2cc(Cl)cc(Cl)c2)C(F)(F)F)ccc1C(=O)NCC(=O)NC1CSC1` (stereo not shown) [AC41], the “BAW Rating” value is listed as “A (50-100)”.

On to `Cc1cc(/C=C/C(c2cc(Cl)cc(Cl)c2)C(F)(F)F)ccc1C(=O)NCc1nc2ccccc2s1` (stereo not shown) [AC42], for which the “BAW Rating” value is “A (50-100)”.

Take `Cc1cc(/C=C/C(c2cc(Cl)cc(Cl)c2)C(F)(F)F)ccc1C(=O)NCc1cnccn1` (stereo not shown) [AC43]: the “BAW Rating” value was “A (50-100)”.

As to `Cc1cc(/C=C/C(c2cc(Cl)cc(Cl)c2)C(F)(F)F)ccc1C(=O)NN(C)c1ccccc1F` (stereo not shown) [AC45], the “BAW Rating” value was “A (50-100)”.

Take `Cc1cc(/C=C/C(c2cc(Cl)cc(Cl)c2)C(F)(F)F)ccc1C(=O)NCc1ccc(Cl)cc1` (stereo not shown) [AC48]: the “BAW Rating” value was “A (50-100)”.

Consider `O=C(NCc1ccc(Cl)nc1)c1ccc(/C=C/C(c2cc(Cl)cc(Cl)c2)C(F)(F)F)cc1F` (stereo not shown) [AC49], for which the “BAW Rating” value is “A (50-100)”.

Turning to `Cc1cc(/C=C/C(c2cc(Cl)cc(Cl)c2)C(F)(F)F)ccc1C(=O)NCc1nccn1C` (stereo not shown) [AC50], the “BAW Rating” value is recorded as “A (50-100)”.

On to `Cc1cc(/C=C/C(c2cc(Cl)cc(Cl)c2)C(F)(F)F)ccc1C(=O)NCC(=O)N(C)CC(F)(F)F` (stereo not shown) [AC51], for which the “BAW Rating” value is recorded as “A (50-100)”.

Consider `Cc1cc(/C=C/C(c2cc(Cl)c(F)c(Cl)c2)C(F)(F)F)ccc1C(=O)NC1CCOCC1` (stereo not shown) [AC52], for which the “BAW Rating” value is “A (50-100)”.

On to `Cc1cc(/C=C/C(c2cc(Cl)c(F)c(Cl)c2)C(F)(F)F)ccc1C(=O)NCc1ccc(Cl)cn1` (stereo not shown) [AC53], for which the “BAW Rating” value is listed as “A (50-100)”.

Turning to `Cc1cc(/C=C/C(c2cc(Cl)c(F)c(Cl)c2)C(F)(F)F)ccc1C(=O)NCc1ccnc(Cl)c1` (stereo not shown) [AC54], the “BAW Rating” value is on record as “A (50-100)”.

Take `CC(C)(C)OC(=O)CNC(=O)c1ccc(/C=C/C(c2cc(Cl)c(Cl)c(Cl)c2)C(F)(F)F)cc1Br` (stereo not shown) [AC58]: the “BAW Rating” value was “A (50-100)”.

Regarding `Cc1cc(/C=C/C(c2cc(Cl)cc(Cl)c2)C(F)(F)F)ccc1C(=O)Nc1ccc(Cl)nc1` (stereo not shown) [AC59], the “BAW Rating” value is given as “A (50-100)”.

As to `O=C(NC1CSC1)c1ccc(/C=C/C(c2cc(Cl)cc(Cl)c2)C(F)(F)F)cc1F` (stereo not shown) [AC61], the “BAW Rating” value is listed as “A (50-100)”.

Consider `O=C(CNC(=O)c1ccc(/C=C/C(c2cc(Cl)cc(Cl)c2)C(F)(F)F)cc1F)NCC(F)(F)F` (stereo not shown) [AC62], for which the “BAW Rating” value was “A (50-100)”.

As to `O=C(NCc1ccc(Cl)nc1)c1ccc(/C=C/C(c2cc(Cl)c(F)c(Cl)c2)C(F)(F)F)cc1Br` (stereo not shown) [AC63], the “BAW Rating” value is “A (50-100)”.

Turning to `O=C(CNC(=O)c1ccc(/C=C/C(c2cc(Cl)c(Cl)c(Cl)c2)C(F)(F)F)cc1Cl)NCC(F)(F)F` (stereo not shown) [AC64, (E)-2-Chloro-N-(2-oxo-2-((2,2,2-trifluoroethyl)amino)ethyl)-4-(4,4,4-trifluoro-3-(3,4,5-trichlorophenyl)but-1-en-1-yl)benzamide], the “BAW Rating” value is recorded as “A (50-100)”.

For the compound `O=C(NCc1ccc(Cl)nc1)c1ccc(/C=C/C(c2cc(Cl)c(F)c(Cl)c2)C(F)(F)F)cc1F` (stereo not shown) [AC65], the “BAW Rating” value is “A (50-100)”.
